Tested on: SEM cells
Assay: cell viability relative to DMSO control; higher = less cytotoxic
Conditions: 48 h
In short: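 NOMO1 or SEM cells were plated at 500 cells/well and P12-Ichikawa cells at 1000 cells/well in 1536-well plates (5 μl), after each leukemia line had been adapted for at least four passages in each medium. Pin dosing delivered library compounds in DMSO at 11 threefold concentrations, 47 μM to 0.79 nM. CellTiter-Glo One luminescence was read after 48 h at 37°C. Viability is reported as a per-plate percentage of DMSO wells, with cell-free wells as background.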

[1] = HPLM + 10% dialyzed FBS, 0.000781 µM
[2] = HPLM + 10% dialyzed FBS, 0.00234 µM
[3] = HPLM + 10% dialyzed FBS, 0.00702 µM
[4] = HPLM + 10% dialyzed FBS, 0.0211 µM
[5] = HPLM + 10% dialyzed FBS, 0.0632 µM
[6] = HPLM + 10% dialyzed FBS, 0.19 µM
[7] = HPLM + 10% dialyzed FBS, 0.569 µM
[8] = HPLM + 10% dialyzed FBS, 1.71 µM
[9] = HPLM + 10% dialyzed FBS, 5.12 µM
[10] = HPLM + 10% dialyzed FBS, 15.4 µM
[11] = HPLM + 10% dialyzed FBS, 46.1 µM
[12] = RPMI 5 mM glucose + 10% FBS, 0.000781 µM
[13] = RPMI 5 mM glucose + 10% FBS, 0.00234 µM
[14] = RPMI 5 mM glucose + 10% FBS, 0.00702 µM
[15] = RPMI 5 mM glucose + 10% FBS, 0.0211 µM
[16] = RPMI 5 mM glucose + 10% FBS, 0.0632 µM
[17] = RPMI 5 mM glucose + 10% FBS, 0.19 µM
[18] = RPMI 5 mM glucose + 10% FBS, 0.569 µM
[19] = RPMI 5 mM glucose + 10% FBS, 1.71 µM
[20] = RPMI 5 mM glucose + 10% FBS, 5.12 µM
[21] = RPMI 5 mM glucose + 10% FBS, 15.4 µM
[22] = RPMI 5 mM glucose + 10% FBS, 46.1 µM
[23] = RPMI 5 mM glucose + 10% dialyzed FBS, 0.000781 µM
[24] = RPMI 5 mM glucose + 10% dialyzed FBS, 0.00234 µM
[25] = RPMI 5 mM glucose + 10% dialyzed FBS, 0.00702 µM
[26] = RPMI 5 mM glucose + 10% dialyzed FBS, 0.0211 µM
[27] = RPMI 5 mM glucose + 10% dialyzed FBS, 0.0632 µM
[28] = RPMI 5 mM glucose + 10% dialyzed FBS, 0.19 µM
[29] = RPMI 5 mM glucose + 10% dialyzed FBS, 0.569 µM
[30] = RPMI 5 mM glucose + 10% dialyzed FBS, 1.71 µM
[31] = RPMI 5 mM glucose + 10% dialyzed FBS, 5.12 µM
[32] = RPMI 5 mM glucose + 10% dialyzed FBS, 15.4 µM
[33] = RPMI 5 mM glucose + 10% dialyzed FBS, 46.1 µM

| Structure (SMILES) | cell viability [1] [%] | cell viability [2] [%] | cell viability [3] [%] | cell viability [4] [%] | cell viability [5] [%] | cell viability [6] [%] | cell viability [7] [%] | cell viability [8] [%] | cell viability [9] [%] | cell viability [10] [%] | cell viability [11] [%] | cell viability [12] [%] | cell viability [13] [%] | cell viability [14] [%] | cell viability [15] [%] | cell viability [16] [%] | cell viability [17] [%] | cell viability [18] [%] | cell viability [19] [%] | cell viability [20] [%] | cell viability [21] [%] | cell viability [22] [%] | cell viability [23] [%] | cell viability [24] [%] | cell viability [25] [%] | cell viability [26] [%] | cell viability [27] [%] | cell viability [28] [%] | cell viability [29] [%] | cell viability [30] [%] | cell viability [31] [%] | cell viability [32] [%] | cell viability [33] [%] |
| --- | --- | --- | --- | --- | --- | --- | --- | --- | --- | --- | --- | --- | --- | --- | --- | --- | --- | --- | --- | --- | --- | --- | --- | --- | --- | --- | --- | --- | --- | --- | --- | --- | --- |
| CO/N=C(/C(=O)N[C@@H]1C(=O)N2C(C(=O)O)=C(Cn3ccc(=N)n3CCO)CS[C@H]12)c1csc(N)n1 | 88.8 | 90.5 | 115 | 108 | 112 | 122 | 97.6 | 117 | 121 | 132 | 127 | 123 | 95 | 130 | 136 | 130 | 140 | 125 | 147 | 122 | 151 | 138 |  |  |  |  |  |  |  |  |  |  |  |
| CCCCCCCCCCCC(CC1OC(=O)C1CCCCCC)OC(=O)C(CC(C)C)NC=O (stereo not drawn) | 86.9 | 82.3 | 96.1 | 99 | 92.8 | 98.8 | 91.4 | 98 | 83.2 | 65.1 | 10.1 | 82.2 | 86.8 | 96.6 | 86.6 | 86.9 | 91.2 | 79.9 | 76.2 | 48.2 | 24.9 | 6.99 | 86.9 | 90.5 | 101 | 82.1 | 105 | 99.4 | 108 | 87.6 | 64.8 | 38.1 | 7.62 |
| COCCOC(=O)C/1=C(C)/NC/2=C(C1C3=CC=CC(=C3)O)/C(=O)CC(C2)C4=C(OC)C=CC=C4 (stereo not drawn) | 90.2 | 80.6 | 106 | 108 | 98.2 | 87.7 | 100 | 101 | 94.3 | 57 | 30.1 | 98.9 | 96.8 | 97.8 | 126 | 103 | 90.6 | 115 | 90.8 | 78.5 | 45.6 | 24.4 | 80.8 | 79.2 | 122 | 104 | 105 | 82.4 | 102 | 101 | 74.1 | 50.9 | 21.7 |
| CO[C@H]1C[C@@H]2CC[C@@H](C)[C@@](O)(O2)C(=O)C(=O)N2CCCC[C@H]2C(=O)O[C@H]([C@H](C)C[C@@H]2CC[C@@H](OP(C)(C)=O)[C@H](OC)C2)CC(=O)[C@H](C)/C=C(\C)[C@@H](O)[C@@H](OC)C(=O)[C@H](C)C[C@H](C)/C=C/C=C/C=C/1C | 91 | 97.7 | 99.9 | 98.8 | 81.7 | 40.8 | 80.2 | 81.9 | 75.4 | 71.1 | 64.1 | 87.7 | 96 | 105 | 76.7 | 80.9 | 42.9 | 85.8 | 78.8 | 63.7 | 66.6 | 52.9 | 105 | 98.1 | 108 | 108 | 92.3 | 40.3 | 85.7 | 86.9 | 71.9 | 68.2 | 57.1 |
| CCC1=C[C@@H]2CN(C1)Cc1c([nH]c3ccccc13)[C@@](C(=O)OC)(c1cc3c(cc1OC)N(C)[C@H]1[C@@](O)(C(=O)OC)[C@H](OC(C)=O)[C@]4(CC)C=CCN5CC[C@]31[C@@H]54)C2 | 119 | 117 | 110 | 92.7 | 75.9 | 32 | 25.5 | 24.1 | 23.6 | 26.7 | 17.3 |  |  |  |  |  |  |  |  |  |  |  | 108 | 106 | 99.7 | 86.5 | 62.9 | 30 | 23.9 | 22 | 24.9 | 26.3 | 12.4 |
| C[C@H]1CN(C[C@@H](C)O1)CC(=O)NC2=CC=C3SC4=C(CC3=C2)C=CC=C4\C5=C\C(=O)\C=C(/O5)N6CCOCC6 | 80.4 | 108 | 43 | 118 | 110 | 126 | 113 | 113 | 89.8 | 84.4 | 39.8 | 76.2 | 91.8 | 14.3 | 78.1 | 86.6 | 80.5 | 83.2 | 81.9 | 75.8 | 44.1 | 15 | 86.7 | 95.3 | 34.6 | 101 | 118 | 111 | 103 | 99.4 | 73.7 | 46.9 | 19.6 |
| O=C(O)[C@H](Cc1c[nH]c2ccccc12)N1C(=O)c2ccccc2C1=O | 85.2 | 63.5 | 96.4 | 92.4 | 99.3 | 102 | 91.7 | 97.8 | 105 | 99.4 | 83.8 | 99.1 | 52.9 | 105 | 112 | 100 | 108 | 90.7 | 93.3 | 92 | 84.8 | 77.4 | 89.8 | 41.9 | 96.4 | 94.8 | 83.8 | 87.4 | 99.3 | 84.7 | 97.1 | 81.9 | 68 |
| OC[C@H]1O[C@@H](Oc2ccc(O)cc2)[C@H](O)[C@@H](O)[C@@H]1O | 68.3 | 82.3 | 75.3 | 93 | 90.1 | 95.1 | 95.7 | 19.1 | 93.1 | 77.7 | 76.3 | 71.7 | 90.8 | 73.7 | 96.3 | 90.3 | 95.4 | 102 | 17 | 82.3 | 103 | 77.2 | 86.2 | 81.8 | 92.2 | 87.8 | 72 | 101 | 105 | 22.1 | 97.9 | 88 | 81.2 |
| CNC(=O)c1cccc(-c2ccc3c(N4CCOC[C@@H]4C)nc(N4CCOC[C@@H]4C)nc3n2)c1 | 97.5 | 102 | 85.8 | 77.2 | 73.2 | 63.7 | 62.6 | 47.8 | 37.6 | 38.6 | 23.1 | 110 | 98.1 | 97 | 93.3 | 84.4 | 77.6 | 78.7 | 56.1 | 47.3 | 32.9 | 17.9 | 97.7 | 95.9 | 85.3 | 76 | 69.6 | 64.1 | 58.6 | 55.3 | 43 | 35 | 20.7 |
| O=C(Cc1cccc(OC(F)(F)F)c1)Nc1ccc(CCCCc2nnc(NC(=O)Cc3ccccn3)s2)nn1 | 122 | 107 | 119 | 112 | 107 | 89 | 86.7 | 87.4 | 79.5 | 72 | 65.1 |  |  |  |  |  |  |  |  |  |  |  | 141 | 116 | 108 | 91.8 | 78.8 | 70.3 | 70.6 | 60.2 | 56.7 | 50.7 | 46 |
| Cc1nc(Nc2ncc(C(=O)Nc3c(C)cccc3Cl)s2)cc(N2CCN(CCO)CC2)n1 | 88.1 | 106 | 93.3 | 98.3 | 91.7 | 92 | 80.2 | 81.9 | 54.9 | 34.9 | 29.9 | 66.6 | 68.9 | 64.9 | 78.4 | 68.2 | 66.1 | 74.7 | 69.9 | 60.1 | 17.5 | 14.8 | 100 | 102 | 106 | 99.6 | 104 | 99.9 | 88.3 | 79.2 | 50.3 | 26.4 | 25.2 |
| Cc1c[nH]c(/C=C2\C(=O)Nc3ccccc32)c1CCC(=O)O | 102 | 107 | 112 | 103 | 89.8 | 90.1 | 69.7 | 51.6 | 42.6 | 26.7 | 39 | 61.2 | 83.1 | 83.6 | 64.7 | 72.7 | 49.3 | 50.6 | 34.1 | 27.6 | 28.1 | 26.6 | 107 | 105 | 99.6 | 94.7 | 90.8 | 75.8 | 67.6 | 47.1 | 33.6 | 25.7 | 46.5 |
| CN(C)CCOC(c1ccccc1)c1ccccc1 | 90.4 | 90.5 | 108 | 110 | 106 | 98.1 | 97.1 | 94.3 | 91.8 | 92.9 | 90.3 | 107 | 107 | 113 | 105 | 111 | 114 | 104 | 117 | 94.1 | 116 | 97.5 | 104 | 96.8 | 115 | 121 | 119 | 114 | 122 | 102 | 94.8 | 94.4 | 92 |
| C#Cc1cccc(Nc2ncnc3cc(OCCOC)c(OCCO)cc23)c1 | 104 | 113 | 98.3 | 117 | 116 | 123 | 110 | 105 | 96.8 | 69.1 | 20 |  |  |  |  |  |  |  |  |  |  |  | 114 | 107 | 118 | 114 | 116 | 103 | 105 | 88.4 | 94.9 | 62.5 | 14.5 |

Reference: the supplement of paper PMC11451515
